Reference: paper PMC10873635 (Proceedings of the National Academy of Sciences of the …, 2024)

Experiments:
His6-Scap(L1)-FLAG = biological target: T1, His6-Scap(L1)-FLAG (Cricetulus griseus, UniProt P97260); experiment: competition with [3H]cholesterol; assay type: binding; settings: 150 nM [3H]cholesterol, 0.004% NP-40, 0.002% FC-13, 4 °C, 4 h
T1 sequence (P97260 46-269): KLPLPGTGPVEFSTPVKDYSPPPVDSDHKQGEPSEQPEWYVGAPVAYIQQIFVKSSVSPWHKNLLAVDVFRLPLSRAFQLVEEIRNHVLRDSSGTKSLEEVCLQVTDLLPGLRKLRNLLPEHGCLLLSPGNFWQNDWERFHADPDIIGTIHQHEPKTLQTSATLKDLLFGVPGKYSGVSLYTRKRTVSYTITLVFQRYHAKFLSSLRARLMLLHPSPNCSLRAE

His6-ALO (Anthrolysin O) = His6-ALO (Anthrolysin O) (Bacillus anthracis, UniProt A0A6L7HHW7); assay type: biochemical
Sequence of His6-ALO (Anthrolysin O) (A0A6L7HHW7 35-512 limits assumed): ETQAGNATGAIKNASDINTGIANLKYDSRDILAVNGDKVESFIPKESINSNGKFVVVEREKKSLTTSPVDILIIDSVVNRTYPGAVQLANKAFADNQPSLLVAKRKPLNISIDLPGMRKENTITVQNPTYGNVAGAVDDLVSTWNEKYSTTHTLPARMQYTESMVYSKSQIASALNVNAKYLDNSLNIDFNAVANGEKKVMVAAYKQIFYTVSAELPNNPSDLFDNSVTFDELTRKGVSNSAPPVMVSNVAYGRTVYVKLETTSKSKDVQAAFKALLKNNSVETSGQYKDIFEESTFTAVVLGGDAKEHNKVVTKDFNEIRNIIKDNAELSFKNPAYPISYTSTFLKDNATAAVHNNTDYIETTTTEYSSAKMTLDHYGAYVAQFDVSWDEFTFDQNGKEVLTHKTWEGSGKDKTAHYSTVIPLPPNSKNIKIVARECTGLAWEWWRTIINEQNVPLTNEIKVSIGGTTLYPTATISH

| Structure (SMILES) | competition with [3H]cholesterol (His6-Scap(L1)-FLAG; competitive) | inhibition of hemolysis of rabbit erythrocytes (His6-ALO (Anthrolysin O)) | competition with [3H]cholesterol (His6-Scap(L1)-FLAG; competitive, cholesterol site) | competition with [3H]cholesterol (His6-Scap(L1)-FLAG; also labelled compound) |
| --- | --- | --- | --- | --- |
| CC(C)=CCC[C@@H](C)[C@H]1CC[C@H]2[C@@H]3CC=C4C[C@@H](O)CC[C@]4(C)[C@H]3CC[C@]12C [desmosterol] | both Scap and ALO bind desmosterol, 25-fluorocholesterol, and β-sitosterol | both Scap and ALO bind desmosterol, 25-fluorocholesterol, and β-sitosterol |  |  |
| CCOC(=O)c1ccc(NC(=O)Nc2ccc(-c3noc(C4CCC4)n3)cc2)cc1 [UT-59, ethyl 4-({[4-(5-cyclobutyl-1,2,4-oxadiazol-3-yl)anilino]carbonyl}amino) benzoate] |  |  | UT-59 competed with [^3H]cholesterol for binding to His6-Scap(L1)-FLAG to a similar degree as unlabeled cholesterol |  |
| C[C@H](CCCC(C)(C)F)[C@H]1CC[C@H]2[C@@H]3CC=C4C[C@@H](O)CC[C@]4(C)[C@H]3CC[C@]12C [25-fluorocholesterol] | both Scap and ALO bind desmosterol, 25-fluorocholesterol, and β-sitosterol | both Scap and ALO bind desmosterol, 25-fluorocholesterol, and β-sitosterol |  |  |
| CC(C)CCC[C@@H](C)[C@H]1CC[C@H]2[C@@H]3CC[C@H]4C[C@@H](O)CC[C@]4(C)[C@H]3CC[C@]12C [dihydrocholesterol] | as well as dihydrocholesterol, where the double bond in the steroid nucleus is reduced |  |  |  |
| CC[C@H](CC[C@@H](C)[C@H]1CC[C@H]2[C@@H]3CC=C4C[C@@H](O)CC[C@]4(C)[C@H]3CC[C@]12C)C(C)C [β-sitosterol] | both Scap and ALO bind desmosterol, 25-fluorocholesterol, and β-sitosterol | both Scap and ALO bind desmosterol, 25-fluorocholesterol, and β-sitosterol |  |  |
| CC(C)CCC[C@@H](C)[C@H]1CC[C@H]2[C@@H]3CC=C4C[C@@H](O)CC[C@]4(C)[C@H]3CC[C@]12C [cholesterol] |  | the sterol occupied the binding pocket, preventing ALO from binding to the membrane and inhibiting hemolysis |  | As expected, both Scap and ALO bind cholesterol. |
